Measured values: patent US20030077317A1, “Methods and compositions for enhancing the bioadhesive properties of polymers using organic excipients” (Brown University Research Foundation, priority 1996, published 2003)

Assays:
[1] = tested on: everted intestine; assay: Distribution of acetaminophen in tissue compartments after incubation of everted intestine in vitro; format: in vitro ADME, rat
Procedure: An in vitro assay for quantifying bioadhesion of microspheres to intestinal tissue was used to test the hot melt microspheres made as described in Example 2 (Jacob et al., Proceed,. Intern. Symp. Control. Rel. Bioact. Mater. 22:312-313 (1995). Everted sac experiments were performed using the microsphere formulations listed above. 6 cm segments of rat jejunum flushed with phosphate buffered saline (PBS), everted and fashioned into sacs filled with PBS. Sacs were incubated with 60 mg of microspheres in 5 ml of PBS at 37° C. with end-over-end agitation. After 30 min, the sacs were removed and the unbound microspheres were collected, washed with distilled water, frozen and lyophilized for 24 hrs. The weight of unbound beads was used to determine the amount of beads bound to the intestine:
The FAPP:SAPP 92:8 18% acetaminophen microspheres were made using the hot melt method described in Example 2, and were used in everted sac experiments and the release of drug was determined to yield information on bioavailability. The release was determined by homogenizing intestinal tissue and mucosal and serosal fluids. The homogenates were centrifuged and the supernatant fluids were assayed for acetaminophen.

[2] = tested on: rats; assay: Oral (stomach tube) insulin delivery in rat model, glucose tolerance after subcutaneous glucose load; format: in vivo; conditions: fed by stomach tube, by 3 hours
Procedure: The delivery of insulin after adminstration of the nanoparticles, loaded with 10% (w/w) micronized FeO, was studied in a rat model. Five 300 g fasted rats were anaesthetized with Metofane and fed the following formulations by stomach tube: Rats 1 and 2: 0.5 mL saline Rat 3: 24 I.U. insulin/0.5 mL saline (amorphous suspension) Rats 4 and 5: 50 mg FAPP/PLGA nanospheres containing 20 I.U. insulin and 10% (w/w)FeO Blood samples from the tail vein were taken as an initial baseline and rats were subsequently tested for glucose tolerance following injection of a subcutaneous glucose load, consisting of 5 mL of 5% sterile glucose solution. Tutwiler et al., Diabetes, 27:856-867 (1978). At 1, 3, 4 and 5 hours postfeeding, blood samples were again taken and plasma glucose levels were measured spectrophotometrically at 505 nm using the Trinder glucose assay.

| Compound | acetaminophen in gut wall ([1]; everted intestine in vitro) [mg/dL] | acetaminophen in mucosal fluid ([1]; everted intestine in vitro) [mg/dL] | acetaminophen in serosal fluid ([1]; everted intestine in vitro) [mg/dL] | mucosal/serosal ratio ([1]; everted intestine in vitro) | acetaminophen distribution, gut wall ([1]; everted sac) | acetaminophen distribution, mucosal fluid ([1]; everted sac) | acetaminophen distribution, serosal fluid ([1]; everted sac) | increase in blood glucose level over fasting baseline [2] [%] |
| --- | --- | --- | --- | --- | --- | --- | --- | --- |
| CC(=O)Nc1ccc(O)cc1 [control, acetaminophen] | 19 ± 7 | 39 ± 1 | 13 ± 1 | 3.0 | 7.9 ± 0.9 % of total dose | 86.5 ± 1.5 % of total dose | 5.7 ± 0.9 % of total dose |  |
| insulin [oral insulin solution] |  |  |  |  |  |  |  | 62 |
